Results taken from patent US12233047B2, “Pharmaceutical combination and use thereof” (ASCENTAGE PHARMA (SUZHOU) CO., LTD., priority 2019, dated 2025).

Key:
FLT3 (R834Q) = target: T1, FLT3 (R834Q) (Homo sapiens, UniProt P36888, R834Q); test: KINOMEscan kinase binding assay, FLT3 (R834Q)
T1 construct: host or cells: T7 phage in E. coli (BL21-derived) or HEK-293
T1 sequence (P36888 27-993 R834Q): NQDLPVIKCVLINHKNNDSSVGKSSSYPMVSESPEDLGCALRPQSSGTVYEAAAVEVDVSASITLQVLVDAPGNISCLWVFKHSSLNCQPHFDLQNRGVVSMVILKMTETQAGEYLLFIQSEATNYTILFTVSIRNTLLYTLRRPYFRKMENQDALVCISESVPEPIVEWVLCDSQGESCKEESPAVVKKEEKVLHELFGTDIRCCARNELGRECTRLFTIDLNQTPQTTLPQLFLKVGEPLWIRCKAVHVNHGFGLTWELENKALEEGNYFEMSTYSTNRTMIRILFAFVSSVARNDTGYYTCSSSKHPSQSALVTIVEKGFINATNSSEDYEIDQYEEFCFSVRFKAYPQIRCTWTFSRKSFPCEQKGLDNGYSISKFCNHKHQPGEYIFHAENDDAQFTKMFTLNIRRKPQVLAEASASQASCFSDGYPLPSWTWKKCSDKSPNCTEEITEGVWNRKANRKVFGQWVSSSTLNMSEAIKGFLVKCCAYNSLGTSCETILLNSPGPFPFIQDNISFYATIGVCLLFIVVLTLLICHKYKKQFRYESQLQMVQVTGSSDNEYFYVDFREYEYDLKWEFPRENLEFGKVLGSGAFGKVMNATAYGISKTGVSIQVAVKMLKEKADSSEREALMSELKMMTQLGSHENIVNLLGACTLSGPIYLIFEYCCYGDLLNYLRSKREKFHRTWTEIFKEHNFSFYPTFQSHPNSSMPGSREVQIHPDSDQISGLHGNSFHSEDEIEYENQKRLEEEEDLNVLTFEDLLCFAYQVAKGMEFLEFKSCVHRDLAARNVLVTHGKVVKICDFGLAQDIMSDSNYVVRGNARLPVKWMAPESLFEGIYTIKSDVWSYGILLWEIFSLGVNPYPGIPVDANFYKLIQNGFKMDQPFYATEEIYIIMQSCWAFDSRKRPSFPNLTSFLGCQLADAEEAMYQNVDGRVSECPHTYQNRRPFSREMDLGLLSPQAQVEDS
Experimental: The kinase assay was conducted using KINOMEscan™.
Kinase-tagged T7 phage strains were grown in parallel in 24-well blocks in an E. coli host derived from the BL21 strain. E. coli were grown to log-phase and infected with T7 phage from a frozen stock (multiplicity of infection=0.4) and incubated with shaking at 32° C. until lysis (90-150 minutes). The lysates were centrifuged (6,000×g) and filtered (0.2 μm) to remove cell debris. The remaining kinases were produced in HEK-293 cells and subsequently tagged with DNA for qPCR detection. Streptavidin-coated magnetic beads were treated with biotinylated small molecule ligands for 30 minutes at room temperature to generate affinity resins for kinase assays. The liganded beads were blocked with excess biotin and washed with blocking buffer (SeaBlock (Pierce), 1% BSA, 0.05% Tween 20, 1 mM DTT) to remove unbound ligand and to reduce non-specific phage binding. Binding reactions were assembled by combining kinases, liganded affinity beads, and test compound (Compound 23) in 1× binding buffer (20% SeaBlock, 0.17×PBS, 0.05% Tween 20, 6 mM DTT). Test compound were prepared as 40× stocks in 100% DMSO and directly diluted into the assay. All reactions were performed in polypropylene 384-well plates in a final volume of 0.04 ml. […] The kinase concentration in the eluates was measured by qPCR. […]

[1] = system: Human AML cell line MOLM-13 (FLT3-ITD positive and wild type TP53 gene); test: Human MOLM-13 AML systemic mouse xenograft model, survival; type: in vivo; details: MOLM-13 systemic model, Compound 23 10 mg/kg, Compound C 20 mg/kg, p.o. q2d × 21 d
Experimental: The formulation of Compound C was prepared as homogenous suspension in 0.2% HPMC using a mortar. The drug suspension was prepared every three days or once a week and placed at 4° C. when not in use. Before use, the drug suspension was placed at room temperature and shaken to mix well. The formulation of Compound C was administered to mice via p.o. in a volume of 10 mL/kg.
The formulation of Compound 23 was prepared in 0.2% HPMC in a mortar to generate homogenous suspension. The drug suspension was prepared once every other day and placed at 4° C. when not in use. Before use, the drug suspension was placed at room temperature and shaken well. The formulation of Compound 23 was administered to mice via p.o. in a volume of 10 mL/kg.
MOLM-13 cell lines (Human AML cell line MOLM-13 (FLT3-ITD positive and wild type TP53 gene)) were maintained in RPMI-1640 (Cat. C11875500BT, GIBCO) with 10% fetal bovine serum (Cat. 10099-141, GIBCO), 1% L-glutamine, 100 U/mL penicillin G and 100 μg/mL streptomycin (Cat. GNM15140, Hangzhou Geno Biomedical Technology Co., Ltd). Cells were incubated at 37° C. in a humidified incubator with 5% CO2.
Six to eight weeks old, female, NOD SCID and BALB/c nude mice were used. Animals were obtained from Vital River Laboratories (VRL, Beijing, China, license number SCXK(J) 2012-0001 and SCXK(J) 2016-0006). The body weights were 17-24 g.
MOLM-13 systemic tumor model were established by injecting tumor cells into the tail vein (10×10^6 cells/mouse) under the sterile condition. To establish the MOLM-13 systemic model, all animals were intraperitoneally injected (i.p.) with cyclophosphamide (150 mg/kg) for two consecutive days before the inoculation of MOLM-13 cells. On the third day after cell inoculation, animals were randomized into 10 mice per group and treatment was initiated (day 1) according to Table 2.
The animals were euthanized when the experimental animals had symptoms such as weight loss and weight loss greater than 20%, limb paralysis, tumor metastasis to the eye causing ocular protrusion, tumor metastasis to the abdominal cavity causing abdominal enlargement. These severe health issues were considered as the same as animal death caused by tumor growth and the affected animals were sacrificed immediately.
The date of the last mouse died (the last measurement) was used for analysis of median overall survival and the generation of Kaplan-Meier plots. Survival curves of different treatment groups were compared using log-rank test with Bonferroni's multiple test. All data were analyzed in SPSS version 18.0 (IBM, Armonk, NY, U.S.A.). Prism version 6 (GraphPad Software Inc., San Diego, CA, U.S.A.) was used for graphic presentation.

## Cc1ccc(C(=O)Nc2ccc(CN3CCN(C)CC3)c(C(F)(F)F)c2)cc1C#Cc1cnc2[nH]ncc2c1 [Compound 23, 3-(2-(1H-pyrazolo[3,4-b]pyridin-5-yl)ethynyl)-4-methyl-N-(4-((4-methylpiperazin-1-yl)methyl)-3-(trifluoromethyl)phenyl)benzamide]
FLT3 (R834Q); 10 nM
  % Ctrl@10 nM: 23 % Ctrl
FLT3 (R834Q); 100 nM
  % Ctrl@100 nM: 15 % Ctrl
[1]; vehicle 19 days
  Median survival time of mice: 29 days
[1]; versus vehicle
  Prolonged survival time of mice: 10 days
